The source of these data is patent publication US7964607B2, “Pyrazolo[3,4-d]pyrimidine compounds” (Pfizer Inc., priority 2007, dated 2011).

pIC50: −log10 of the molar value.

For the first experiment, the target named is T1, human recombinant PDE9 enzyme (Homo sapiens, UniProt O76083).
T1 construct: made in house; host or cells: SF-9 insect cells
T1 sequence (O76083 whole entry): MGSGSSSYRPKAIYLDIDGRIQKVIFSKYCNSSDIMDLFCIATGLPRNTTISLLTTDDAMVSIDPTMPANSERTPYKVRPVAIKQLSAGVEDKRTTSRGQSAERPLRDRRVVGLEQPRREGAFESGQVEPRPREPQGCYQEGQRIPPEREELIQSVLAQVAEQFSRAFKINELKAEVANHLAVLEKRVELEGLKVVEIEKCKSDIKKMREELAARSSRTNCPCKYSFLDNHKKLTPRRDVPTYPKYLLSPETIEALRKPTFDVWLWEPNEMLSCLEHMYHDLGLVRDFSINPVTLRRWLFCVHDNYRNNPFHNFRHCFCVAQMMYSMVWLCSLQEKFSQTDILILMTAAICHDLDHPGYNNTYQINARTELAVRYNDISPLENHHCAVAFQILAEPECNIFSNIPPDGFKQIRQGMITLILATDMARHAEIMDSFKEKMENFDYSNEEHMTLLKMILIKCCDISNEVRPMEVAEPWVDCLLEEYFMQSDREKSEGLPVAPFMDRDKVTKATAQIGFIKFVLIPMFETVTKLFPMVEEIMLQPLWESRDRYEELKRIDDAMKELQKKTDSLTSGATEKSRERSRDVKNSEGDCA
Put plainly: Phosphodiesterase 9 (PDE9) inhibitory activity, Scintillation Proximity (SPA) assay. It counts as biochemical.
Details: not given
Here is the method: Phosphodiesterase 9 (PDE9) Inhibitory Activity The PDE9 assay was performed using the Phosphodiesterase Scintillation Proximity (SPA) assay (GE Healthcare Life Sciences). […] The human recombinant PDE9 enzyme was generated in SF-9 cells, the cell pellets were sonicated in buffer (20 mM TRIS, 2 mM benzamidine, 1 mM EDTA, 250 mM sucrose, 100 μM PMSF, pH 7.5 with HCl), centrifuged at 40,000×g for 20 min at 4° C. The supernatants were stored at −80° C. […] Test compounds were dissolved in DMSO, diluted in DI H2O and serially diluted in 20% DMSO/80% H2O, for a final concentration of 2% DMSO. For the assay the PDE9 was diluted with assay buffer such that 20% or less of the substrate was hydrolyzed to 5′GMP. Each assay well contained 10 μl of test compound or solvent, 40 μl of [^3H]CGMP and 50 μl of enzyme, background was determined by a high concentration of a PDE inhibitor. The assay was initiated with the addition of the enzyme and carried out at room temperature for 30 min. […] The plates were sealed, vortexed, allowed to set for >300 min, then counted in a Wallac TriLux MicroBeta LSC.
In general terms: Scintillation proximity formats need no separation of bound from free tracer.
On to `Cc1ccc(CN2C[C@@H](C)[C@H](c3nc4c(cnn4C4CCOCC4)c(=O)[nH]3)C2)cn1` [Example 79, 6-{(3S,4S)-4-methyl-1-[(6-methylpyridin-3-yl)methyl]pyrrolidin-3-yl}-1-(tetrahydro-2H-pyran-4-yl)-1,5-dihydro-4H-pyrazolo[3,4-d]pyrimidin-4-one], for which the negative logarithm of the IC50 (pIC50) (commonly the negative decadic logarithm of the IC50, by convention in mol/L) was 8.43.

For the compound `CCC1CN(Cc2ccccc2)CC1c1nc2c(cnn2C2CCOCC2)c(=O)[nH]1` (racemic) [97(a), 6-[(3,4-trans)-1-benzyl-4-ethylpyrrolidin-3-yl]-1-(tetrahydro-2H-pyran-4-yl)-1,5-dihydro-4H-pyrazolo[3,4-d]pyrimidin-4-one], the negative-log IC50 (pIC50) was 8.14.

The experiment is the same for the next values; noted with them: human recombinant PDE9 from SF-9 cells; 50 nM [3H]cGMP; room temperature, 30 min; Examples 3-114; read-out: G5678A (U): IC50.
Regarding `C[C@@H]1CN(Cc2nc3ccccc3n2C)C[C@H]1c1nc2c(cnn2C2CCCC2)c(=O)[nH]1` [Example 49, 1-cyclopentyl-6-{(3S,4S)-4-methyl-1-[(1-methyl-1H-benzimidazol-2-yl)methyl]pyrrolidin-3-yl}-1,5-dihydro-4H-pyrazolo[3,4-d]pyrimidin-4-one], the pIC50 is 8.34.

For `CC(C)n1ncc2c(=O)[nH]c([C@@H]3CN(Cc4ccc5nccnc5c4)C[C@H]3C)nc21` [Example 36, 1-isopropyl-6-[(3S,4S)-4-methyl-1-(quinoxalin-6-ylmethyl)pyrrolidin-3-yl]-1,5-dihydro-4H-pyrazolo[3,4-d]pyrimidin-4-one], the pIC50 is 8.29.

`C[C@@H]1CN(Cc2cnc3ccccc3c2)C[C@H]1c1nc2c(cnn2C2CCOCC2)c(=O)[nH]1` [Example 77, 6-[(3S,4S)-4-methyl-1-(quinolin-3-ylmethyl)pyrrolidin-3-yl]-1-(tetrahydro-2H-pyran-4-yl)-1,5-dihydro-4H-pyrazolo[3,4-d]pyrimidin-4-one]: the pIC50 was 8.91.

In the case of `C[C@@H]1CN(Cc2ccnc(N(C)C)n2)C[C@H]1c1nc2c(cnn2C2CCCC2)c(=O)[nH]1` [Example 54, 1-cyclopentyl-6-[(3S,4S)-1-{[2-(dimethylamino)pyrimidin-4-yl]methyl}-4-methylpyrrolidin-3-yl]-1,5-dihydro-4H-pyrazolo[3,4-d]pyrimidin-4-one], the pIC50 is 7.83.

Turning to `C[C@@H]1CN(Cc2ccc(C(F)(F)F)nc2)C[C@H]1c1nc2c(cnn2C2CCCC2)c(=O)[nH]1` (racemic) [Example 11, 1-cyclopentyl-6-[(3,4-trans)-4-methyl-1-{[6-(trifluoromethyl)pyridin-3-yl]methyl}pyrrolidin-3-yl]-1,5-dihydro-4H-pyrazolo[3,4-d]pyrimidin-4-one], the negative logarithm of the IC50 (pIC50) was 7.72.

`C[C@@H]1CN(c2nccc(C(F)(F)F)n2)C[C@H]1c1nc2c(cnn2C2CCCC2)c(=O)[nH]1` (racemic) [Example 4, 1-cyclopentyl-6-{(3,4-trans)-4-methyl-1-[4-(trifluoromethyl)pyrimidin-2-yl]pyrrolidin-3-yl}-1,5-dihydro-4H-pyrazolo[3,4-d]pyrimidin-4-one]: the negative logarithm of the IC50 (pIC50) is 6.20.

As for `CC[C@@H]1CN(Cc2cccc(C#N)c2)C[C@H]1c1nc2c(cnn2C2CCOCC2)c(=O)[nH]1` [Example 113, 3-({(3S,4S)-3-ethyl-4-[4-oxo-1-(tetrahydro-2H-pyran-4-yl)-4,5-dihydro-1H-pyrazolo[3,4-d]pyrimidin-6-yl]pyrrolidin-1-yl}methyl)benzonitrile], the pIC50 is greater than 9.00.

As to `CC(C)[C@@H]1CN(Cc2ccccc2)C[C@H]1c1nc2c(cnn2C2CCCC2)c(=O)[nH]1` (racemic) [Example 21, 6-[(3,4-trans)-1-benzyl-4-isopropylpyrrolidin-3-yl]-1-cyclopentyl-1,5-dihydro-4H-pyrazolo[3,4-d]pyrimidin-4-one], the pIC50 was 7.46.

Take `C[C@@H]1CN(Cc2ccnc3ccccc23)C[C@H]1c1nc2c(cnn2C2CCCC2)c(=O)[nH]1` (racemic) [Example 10, 1-cyclopentyl-6-[(3,4-trans)-4-methyl-1-(quinolin-4-ylmethyl)pyrrolidin-3-yl]-1,5-dihydro-4H-pyrazolo[3,4-d]pyrimidin-4-one]: the pIC50 was 8.30.

For `Cc1ccc(CN2C[C@@H](C)[C@H](c3nc4c(cnn4C4CCCC4)c(=O)[nH]3)C2)cn1` (racemic) [Example 20, 1-cyclopentyl-6-{(3,4-trans)-4-methyl-1-[(6-methylpyridin-3-yl)methyl]pyrrolidin-3-yl}-1,5-dihydro-4H-pyrazolo[3,4-d]pyrimidin-4-one], the pIC50 was 8.15.

As for `O=c1[nH]c([C@@H]2CN(Cc3ccc4nccnc4c3)C[C@H]2C(F)(F)F)nc2c1cnn2C1CCCC1` (racemic) [Example 52, 1-cyclopentyl-6-[(3,4-trans)-1-(quinoxalin-6-ylmethyl)-4-(trifluoromethyl)pyrrolidin-3-yl]-1,5-dihydro-4H-pyrazolo[3,4-d]pyrimidin-4-one], the pIC50 was 7.59.

Regarding `C[C@@H]1CN(Cc2ccccc2)C[C@H]1c1nc2c(cnn2C2CCSCC2)c(=O)[nH]1` [Example 102, 6-[(3S,4S)-1-benzyl-4-methylpyrrolidin-3-yl]-1-(tetrahydro-2H-thiopyran-4-yl)-1,5-dihydro-4H-pyrazolo[3,4-d]pyrimidin-4-one], the pIC50 was 7.71.

Take `Cc1nccc(CN2C[C@@H](C)[C@H](c3nc4c(cnn4C4CCOCC4)c(=O)[nH]3)C2)n1` [Example 78, 6-{(3S,4S)-4-methyl-1-[(2-methylpyrimidin-4-yl)methyl]pyrrolidin-3-yl}-1-(tetrahydro-2H-pyran-4-yl)-1,5-dihydro-4H-pyrazolo[3,4-d]pyrimidin-4-one]: the pIC50 is 8.36.

For the compound `CC[C@@H]1CN(Cc2ccccn2)C[C@H]1c1nc2c(cnn2C2CCOCC2)c(=O)[nH]1` [Example 109, 6-[(3S,4S)-4-ethyl-1-(pyridin-2-ylmethyl)pyrrolidin-3-yl]-1-(tetrahydro-2H-pyran-4-yl)-1,5-dihydro-4H-pyrazolo[3,4-d]pyrimidin-4-one], the negative-log IC50 (pIC50) is 8.38.

The experiment is the same for the next values; noted with them: human recombinant PDE9 from SF-9 cells; 50 nM [3H]cGMP; room temperature, 30 min; additional compounds Ex. 115-228; read-out: G5678A (U):IC50.
Consider `Cc1cc(C)cc(CN2C[C@@H](C)[C@H](c3nc4c(cnn4C4CCCC4)c(=O)[nH]3)C2)c1` (racemic) [Example 197, 1-cyclopentyl-6-[(3,4-trans)-1-(3,5-dimethylbenzyl)-4-methylpyrrolidin-3-yl]-1,5-dihydro-4H-pyrazolo[3,4-d]pyrimidin-4-one], for which the negative-log IC50 (pIC50) was 7.27.

For `C[C@@H]1CN(Cc2ccc3c(c2)CCO3)C[C@H]1c1nc2c(cnn2C2CCCC2)c(=O)[nH]1` (racemic) [Example 216, 1-cyclopentyl-6-[(3,4-trans)-1-(2,3-dihydro-1-benzofuran-5-ylmethyl)-4-methylpyrrolidin-3-yl]-1,5-dihydro-4H-pyrazolo[3,4-d]pyrimidin-4-one], the pIC50 is 7.76.

With `Cc1cc(C)c(CN2C[C@@H](C)[C@H](c3nc4c(cnn4C4CCCC4)c(=O)[nH]3)C2)c(C)c1` (racemic) [Example 191, 1-cyclopentyl-6-[(3,4-trans)-1-(mesitylmethyl)-4-methylpyrrolidin-3-yl]-1,5-dihydro-4H-pyrazolo[3,4-d]pyrimidin-4-one], the pIC50 was 6.70.

As to `CC(C)Oc1ccccc1CN1C[C@@H](C)[C@H](c2nc3c(cnn3C3CCCC3)c(=O)[nH]2)C1` (racemic) [Example 181, 1-cyclopentyl-6-[(3,4-trans)-1-(2-isopropoxybenzyl)-4-methylpyrrolidin-3-yl]-1,5-dihydro-4H-pyrazolo[3,4-d]pyrimidin-4-one], the pIC50 was 6.87.

As for `C[C@@H]1CN(Cc2cnn3c2CCCCC3)C[C@H]1c1nc2c(cnn2C2CCCC2)c(=O)[nH]1` (racemic) [Example 214, 1-cyclopentyl-6-[(3,4-trans)-4-methyl-1-(5,6,7,8-tetrahydro-4H-pyrazolo[1,5-a]azepin-3-ylmethyl)pyrrolidin-3-yl]-1,5-dihydro-4H-pyrazolo[3,4-d]pyrimidin-4-one], the pIC50 is 7.80.

On to `CCOc1ncccc1CN1C[C@@H](C)[C@H](c2nc3c(cnn3C3CCCC3)c(=O)[nH]2)C1` (racemic) [Example 120, 1-cyclopentyl-6-{(3,4-trans)-1-[(2-ethoxypyridin-3-yl)methyl]-4-methylpyrrolidin-3-yl}-1,5-dihydro-4H-pyrazolo[3,4-d]pyrimidin-4-one], for which the negative logarithm of the IC50 (pIC50) was 7.20.

Regarding `C[C@@H]1CN(Cc2cccc(-n3cccn3)n2)C[C@H]1c1nc2c(cnn2C2CCCC2)c(=O)[nH]1` (racemic) [Example 135, 1-cyclopentyl-6-[(3,4-trans)-4-methyl-1-{[6-(1H-pyrazol-1-yl)pyridin-2-yl]methyl}pyrrolidin-3-yl]-1,5-dihydro-4H-pyrazolo[3,4-d]pyrimidin-4-one], the negative-log IC50 (pIC50) was 7.04.

As for `C[C@@H]1CN(Cc2ccccc2OC(F)(F)F)C[C@H]1c1nc2c(cnn2C2CCCC2)c(=O)[nH]1` (racemic) [Example 224, 1-cyclopentyl-6-{(3,4-trans)-4-methyl-1-[2-(trifluoromethoxy)benzyl]pyrrolidin-3-yl}-1,5-dihydro-4H-pyrazolo[3,4-d]pyrimidin-4-one], the pIC50 was 6.94.

With `C[C@@H]1CN(Cc2nc3cnccc3n2C)C[C@H]1c1nc2c(cnn2C2CCCC2)c(=O)[nH]1` (racemic) [Example 226, 1-cyclopentyl-6-{(3,4-trans)-4-methyl-1-[(1-methyl-1H-imidazo[4,5-c]pyridin-2-yl)methyl]pyrrolidin-3-yl}-1,5-dihydro-4H-pyrazolo[3,4-d]pyrimidin-4-one], the negative-log IC50 (pIC50) was 8.42.
